Laboratory results from patent publication US6376670B1, “Quinoline-indole antimicrobial agents, uses and compositions related thereto” (Sepracor Inc., priority 1997, dated 2002).
≈ marks a conversion by molar mass, not a printed value.

How the values were obtained:
Assay in all cases: Determination of MIC values (BHI broth, 96 well microtiter plate)
Type in all cases: cell-based
[1] = test system: methicillin-resistant Staphylococcus aureus (MRSA); details: BHI broth, 37° C., about 16 hours; for MIC: Staphylococcus aureus, MRSA, 16 h, read-out: MIC MRSA
Summary of the method: (§1)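 BHI broth microdilution; final compound 25, 12.5, 6.25, 3.125, 1.56, 0.78, 0.39, 0 µg/mL (1% DMSO). Inoculum 10^5–10^6 cells/mL; 37° C, ~7-10% CO2, ~16 h. MIC = lowest concentration, no observable growth.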

Streptococcus pneumoniae = details: BHI broth, 37° C., about 16 hours; for MIC: Streptococcus pneumoniae, read-out: MIC S. pneu
Summary of the method: as §1

[2] = test system: vancomycin-resistant Enterococcus spp. (VRE); details: BHI broth, 37° C., about 16 hours; for MIC: Enterococcus, VRE, 16 h, read-out: MIC VREF
Summary of the method: as §1

MIC [1] [µg/mL]	MIC (Streptococcus pneumoniae) [µg/mL]	MIC VREF [2] [µg/mL]	MIC [2] [µg/mL]	MIC S. pneu (Streptococcus pneumoniae) [µg/mL]	MIC MRSA [1] [µg/mL]	SMILES
< 7	< 25		> 25			Clc1ccc2nc(-c3c[nH]c4ccc(Br)cc34)c3c(c2c1)OCC3 [Example 448]
> 25	> 25		> 25			COc1ccc2nc(-c3c(C)[nH]c4ccccc34)ccc2c1 [Example 449]
> 25	> 25		> 25			COc1ccc2nc(-c3c[nH]c4ccc(OCc5ccccc5)cc34)ccc2c1 [Example 450]
< 7	< 7		> 25			Clc1cc(-c2c[nH]c3ccccc23)nc2ccccc12 [Example 451]
< 7	< 7		> 25			OCc1cc(-c2c[nH]c3ccc(Br)cc23)nc2ccc(I)cc12 [Example 452]
< 7	< 7		< 7			OCc1cc(-c2c[nH]c3ccc(Br)cc23)nc2cc(I)ccc12 [Example 453]
< 7	< 7		< 7			OCc1cc(-c2c[nH]c3ccc(Br)cc23)nc2c(I)cccc12 [Example 454]
< 7	< 7	<7				OCc1cc(-c2c[nH]c3ccc(Br)cc23)nc2ccc(Cl)cc12 [Example 455]
< 7	< 7	<7				OCc1cc(-c2c[nH]c3ccc(Br)cc23)nc2cc(Cl)ccc12 [Example 456]
< 7	< 7		< 7			OCc1cc(-c2c[nH]c3ccc(Br)cc23)nc2c(Cl)cccc12 [Example 457]
< 7	< 7		< 7			OCc1cc(-c2c[nH]c3ccc(Br)cc23)nc2c(Br)cccc12 [Example 458]
> 25	> 25		> 25			OCc1[nH]c2ccccc2c1-c1cc(Cl)c2ccccc2n1 [Example 459]
< 7	< 7		< 7			Clc1ccc2c(Cl)cc(-c3c[nH]c4ccc(Br)cc34)nc2c1 [Example 460]
> 25	> 25		> 25			N#Cc1ccc2[nH]cc(-c3cc(Cl)c4ccc(Cl)cc4n3)c2c1 [Example 462]
25 (≈ 71.9 µM)	25 (≈ 71.9 µM)		> 25			Clc1ccc2c(Cl)cc(-c3c[nH]c4cc(Cl)ccc34)nc2c1 [Example 463]
< 7	< 7		> 25			COc1ccc2[nH]cc(-c3cc(Cl)c4ccc(Cl)cc4n3)c2c1 [Example 464]
< 7	< 7		< 25			Cc1[nH]c2ccc(Cl)cc2c1-c1cc(Cl)c2ccccc2n1 [Example 465]
> 25	< 25		> 25			Cc1ccc2nc(-c3c(C)[nH]c4ccccc34)ccc2c1 [Example 466]
> 25	> 25		> 25			Cc1ccc2nc(-c3c[nH]c4c(C)cccc34)ccc2c1 [Example 467]
25 (≈ 91.1 µM)	> 25		> 25			Cc1ccc2nc(-c3c[nH]c4ccc(O)cc34)ccc2c1 [Example 468]
< 7	< 7		> 25			Cc1ccc2nc(-c3c[nH]c4ccc(OCc5ccccc5)cc34)ccc2c1 [Example 469]
> 25	> 25		> 25			OCc1[nH]c2ccc(Cl)cc2c1-c1cc(Cl)c2ccccc2n1 [Example 470]
< 25	< 25		> 25			Cc1[nH]c2ccccc2c1-c1ccc2cccc(C)c2n1 [Example 472]
< 7	< 7		< 25			Cc1[nH]c2ccc(Cl)cc2c1-c1cc(Cl)c2ccc(Cl)cc2n1 [Example 473]
< 7	< 7		< 7			Clc1ccc2c(Cl)cc(-c3c[nH]c4ccc(Cl)cc34)nc2c1 [Example 475]
> 25	< 25		> 25			Cc1cccc2c(-c3cc(Cl)c4ccc(Cl)cc4n3)c[nH]c12 [Example 476]
< 7	< 7		> 25			Clc1ccc2c(Cl)cc(-c3c[nH]c4ccc(OCc5ccccc5)cc34)nc2c1 [Example 477]

MIC [1] [µg/mL]	MIC (Streptococcus pneumoniae) [µg/mL]	MIC VREF [2] [µg/mL]	MIC [2] [µg/mL]	MIC S. pneu (Streptococcus pneumoniae) [µg/mL]	MIC MRSA [1] [µg/mL]	SMILES
> 25	> 25		> 25			Cc1ccc2ccc(-c3c[nH]c4cc(F)ccc34)nc2c1 [Example 478]
> 25	< 25		> 25			COc1ccc2[nH]cc(-c3ccc4ccc(C)cc4n3)c2c1 [Example 479]
> 25	> 25		> 25			COc1ccc2nc(-c3c[nH]c4ccccc34)ccc2c1 [Example 480]
> 25	> 25		> 25			Cc1ccc2nc(-c3c[nH]c4ccccc34)ccc2c1 [Example 481]
< 7	< 7		< 7			Clc1ccc2c(Cl)cc(-c3c[nH]c4ccccc34)nc2c1 [Example 482]
< 7	< 7		< 7			NC(=O)c1cc(-c2c[nH]c3ccc(Br)cc23)nc2ccc(C#CCN3CCCCC3)cc12 [Example 483]
< 7			> 25	< 7		Clc1ccc2nc(-c3c[nH]c4ccc(Cl)cc34)ccc2c1 [Example 484]
< 7	< 25		> 25			COc1ccc(NC(=O)c2cc(-c3c[nH]c4ccc(Br)cc34)nc3ccc(C#CCN4CCCCC4)cc23)cc1 [Example 485]
		>25		< 7	< 7	OCc1cc(-c2c[nH]c3ccc(Br)cc23)nc2ccc(Cl)cc12 [Example 491]
		<25		< 7	< 7	OCc1cc(-c2c[nH]c3ccc(Br)cc23)nc2cc(Cl)ccc12 [Example 492]
< 25	< 25		< 25			NCc1ccc(CNC(=O)c2cc(-c3c[nH]c4cc(F)ccc34)nc3cc(F)ccc23)cc1 [Example 493]
< 7	< 7		< 7			NCc1cccc(CNC(=O)c2cc(-c3c[nH]c4cc(F)ccc34)nc3cc(F)ccc23)c1 [Example 494]
< 25	< 25		> 25			NCCCNC(=O)c1cc(-c2c[nH]c3cc(F)ccc23)nc2cc(F)ccc12 [Example 495]
< 25	< 25		> 25			NCCCCNC(=O)c1cc(-c2c[nH]c3cc(F)ccc23)nc2cc(F)ccc12 [Example 496]
< 25	< 25		< 25			NCCCCCNC(=O)c1cc(-c2c[nH]c3cc(F)ccc23)nc2cc(F)ccc12 [Example 497]
< 25	< 25		> 25			O=C(c1cc(-c2c[nH]c3cc(F)ccc23)nc2cc(F)ccc12)N1CCNCC1 [Example 498]
< 7	< 7		< 7			CN(C)CCN(C)C(=O)c1cc(-c2c[nH]c3ccc(Br)cc23)nc2ccc(I)cc12 [Example 499]
< 7	< 7		< 7			CNCCN(C)C(=O)c1cc(-c2c[nH]c3ccc(Br)cc23)nc2ccc(Cl)cc12 [Example 500]
< 7	< 7		< 7			CNCCN(C)C(=O)c1cc(-c2c[nH]c3ccc(Br)cc23)nc2cc(Cl)ccc12 [Example 501]
< 7	< 7		< 7			CNCCN(C)C(=O)c1cc(-c2c[nH]c3ccc(Br)cc23)nc2ccc(I)cc12 [Example 502]
< 7	< 25		> 25			Clc1ccc2nc(-c3c[nH]c4ccc(Br)cc34)c3c(c2c1)OCCC3 [Example 503]
< 7	< 7		< 7			CN(C)CCN(C)C(=O)c1cc(-c2c[nH]c3ccc(Br)cc23)nc2cc(Cl)ccc12 [Example 505]
< 7	< 7		< 7			CNCCN(C)C(=O)c1cc(-c2cn(C)c3ccc(Br)cc23)nc2cc(Cl)ccc12 [Example 506]
< 7	< 7		< 7			CN(C)CCN(C)C(=O)c1cc(-c2cn(C)c3ccc(Br)cc23)nc2cc(Cl)ccc12 [Example 507]
< 7	< 7		< 7			Fc1ccc2c(CCl)cc(-c3c[nH]c4ccc(Br)cc34)nc2c1 [Example 508]
< 7	< 7		< 7			NCc1cc(-c2c[nH]c3ccc(Br)cc23)nc2cc(F)ccc12 [Example 509]
< 7	< 7		< 7			NCc1cc(-c2c[nH]c3ccc(Br)cc23)nc2cc(Cl)ccc12 [Example 511]

SMILES	MIC [1] [µg/mL]	MIC (Streptococcus pneumoniae) [µg/mL]	MIC VREF [2] [µg/mL]	MIC [2] [µg/mL]	MIC S. pneu (Streptococcus pneumoniae) [µg/mL]	MIC MRSA [1] [µg/mL]
OCc1cc(-c2c[nH]c3ccc(Br)cc23)nc2cc(F)ccc12 [Example 446]	< 7	< 7	<7			
COC(=O)c1cc(-c2c[nH]c3ccc(Br)cc23)nc2cc(F)ccc12 [Example 486]	< 7	< 7		< 7		
NCCNC(=O)c1cc(-c2c[nH]c3ccc(Br)cc23)nc2cc(Cl)ccc12 [Example 487]	< 7	< 7		< 7		
OCc1cc(-c2c[nH]c3ccc(Br)cc23)nc2cc(F)ccc12 [Example 490]			>25		< 7	< 7
